Test results: patent US20020035061A1, “COMPOSITIONS AND METHODS FOR TREATING INFECTIONS USING CATIONIC PEPTIDES ALONE OR IN COMBINATION WITH ANTIBIOTICS” (priority 1996, published 2002)
Read-outs that look alike come from different tables or passages of the source.

Columns and labels:
E. cloacae = type: cell-based; settings: E. cloacae strain ECL007
E. coli = type: cell-based; settings: for Peptide MIC values: agarose dilution
E. faecalis = type: cell-based
E. faecium = type: cell-based
K. pneumoniae = type: cell-based
P. aeruginosa = type: cell-based; settings: for Peptide MIC values: agarose dilution
S. aureus = type: cell-based; settings: for Peptide MIC values: agarose dilution
S. maltophilia = type: cell-based
S. marcescens = type: cell-based
[1] = system: MSSA (Smith, ATCC # 19640); test: In vivo efficacy, MSSA infection; design: species or system S. aureus; settings: formulation D, 60 min post-infection, end of eight day observation
A. calcoaceticus = type: cell-based
S. epidermidis = type: cell-based
S. pneumoniae = test: Agarose dilution assay (MIC); type: cell-based; settings: agarose dilution

Sequence	MIC (E. cloacae) [µg/mL]	MIC (E. coli; E. coli strain ECO003) [µg/mL]	MIC (E. faecalis; E. faecalis strain EFS004) [µg/mL]	MIC (E. faecium; E. faecium strain EFM002) [µg/mL]	MIC (K. pneumoniae; K. pneumoniae strain KP002) [µg/mL]	MIC (P. aeruginosa; P. aeruginosa strain PA004) [µg/mL]	MIC (S. aureus; S. aureus strain SA009) [µg/mL]	MIC (S. maltophilia; S. maltophilia strain SMA001) [µg/mL]	MIC (S. marcescens; S. marcescens strain SMS004) [µg/mL]	% Survival ([1]; 12 mg/kg ip) [%]	% Survival ([1]; 18 mg/kg ip) [%]	% Survival ([1]; 24 mg/kg ip) [%]	MIC (E. faecalis; E. faecalis strain EFS002) [µg/mL]	MIC (K. pneumoniae; K. pneumoniae strain KP001) [µg/mL]	MIC (S. maltophilia; S. maltophilia strain SMA002) [µg/mL]	MIC (S. marcescens; S. marcescens strain SMS003) [µg/mL]	MIC (A. calcoaceticus; A. calcoaceticus strain AC001) [µg/mL]	MIC (P. aeruginosa; P. aeruginosa strain PA005) [µg/mL]	also measured
IKKWPWWPWRRK [MBI 11G2CN]	>128	16	16	4	128	>128	2	>128	>128	10	0	40							
ILKKWWWPWRRK [MBI 11G4CN]	>128					>128				0	0	20	32	>128	64	>128			MIC (A. calcoaceticus; A. calcoaceticus strain AC002): 4 µg/mL; MIC (E. coli; E. coli strain ECO005): 32 µg/mL; MIC (E. faecium; E. faecium strain EFM003): 1 µg/mL; MIC (S. aureus; S. aureus strain SA004): 1 µg/mL; MIC (S. epidermidis; S. epidermidis strain SE010): 2 µg/mL
ILRRWPWWPWRRK [MBI 11B1CN]	>128	8	8	2	64			64	>128	0	30	90					32	>128	MIC (S. aureus; S. aureus strain SA005): 2 µg/mL; MIC (S. epidermidis; S. epidermidis strain SE001): 2 µg/mL
ILWPWWPWRRK [MBI 11B8CN]	>128						4			0	10		32	>128	128	>128	>128	>128	MIC (E. coli; E. coli strain ECO002): 16 µg/mL; Peptide MIC values (E. coli; E. coli ATCC 25922): 32 µg/mL; Peptide MIC values (E. coli; E. coli NCTC 10418): 4 µg/mL; MIC (E. faecium; E. faecium strain EFM001): 16 µg/mL; Peptide MIC values (E. faecium; agarose dilution): 8 µg/mL; Peptide MIC values (P. aeruginosa; P. aeruginosa ATCC 27853): >128 µg/mL; Peptide MIC values (P. aeruginosa; P. aeruginosa NCTC 10662): >128 µg/mL; Peptide MIC values (S. aureus; S. aureus MRSA9): 2 µg/mL; Peptide MIC values (S. aureus; S. aureus MRSA13): 32 µg/mL; Peptide MIC values (S. aureus; S. aureus MRSA17): 4 µg/mL; MIC (S. epidermidis; S. epidermidis strain SE002): 4 µg/mL; Peptide MIC values (S. marcescens; agarose dilution, S. marcescens SM82): >128 µg/mL; Peptide MIC values (S. pneumoniae; S. pneumoniae 406LE8): >128 µg/mL; Peptide MIC values (S. pneumoniae; S. pneumoniae 60120): >128 µg/mL; Peptide MIC values (S. pneumoniae; S. pneumoniae ATCC 49619): 128 µg/mL
